The source of these data is publication PMC10025090 (iScience, 2023).

For test [1], the target named is T1, H2-Kd (Mus musculus, UniProt P01902). The note with it: result in words; cited from earlier work.
The target of test [2] is T1, H2-Kd. The experiment in a line: In vitro pMHC binding assay. To be noted: refolding with 10 μM peptide, 4°C, 72 hours; ELISA; result in words. In general terms: In an ELISA, binding on a coated surface is turned into a signal by an enzyme label.

T1 sequence (P01902 22-296 limits assumed): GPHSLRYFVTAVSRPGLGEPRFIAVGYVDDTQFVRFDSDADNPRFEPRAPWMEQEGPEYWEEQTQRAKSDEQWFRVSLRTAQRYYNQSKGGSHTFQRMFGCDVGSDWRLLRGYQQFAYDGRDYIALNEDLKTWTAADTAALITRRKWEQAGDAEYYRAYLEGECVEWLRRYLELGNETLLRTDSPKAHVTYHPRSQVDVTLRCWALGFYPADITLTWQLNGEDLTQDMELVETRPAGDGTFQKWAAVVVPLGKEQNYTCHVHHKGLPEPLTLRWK
T1 sequence (P61769 21-119 partner): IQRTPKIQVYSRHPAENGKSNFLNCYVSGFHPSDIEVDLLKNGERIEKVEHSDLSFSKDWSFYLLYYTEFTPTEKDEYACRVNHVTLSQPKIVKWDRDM

Consider YIRPFETKVK, for which the “In silico-predicted MHC binding” value on H2-Kd [1] is “poor in silico-predicted MHC binder”. The “In vitro binding affinity to H2-Kd” value at H2-Kd [2] is “significantly high”.
